# Measured values: PubChem BioAssay AID1963833 (Molecular Pharmacology Branch, DTP, NCI, 2024)
# System: 883617-216-R-J1-PDC complex spheroid viability
# Experiment: Anticancer human tumor 883617-216-R-J1-PDC patient-derived bladder carcinoma cell line growth inhibition [POLQ]
# Conditions: for IC50: curve of first compound; for viability, T/C: stronger effect = lower value
# Procedure, shortened: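 Three-cell-type spheroids modelling solid tumor plus stroma served as the readout system; POL inhibitors were tested individually and in combination, concentration ranges set by clinical Cmax where known.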
# [1] = second compound 0.0316 µM, first compound 0.0316 µM
# [2] = second compound 0.0316 µM, first compound 0.1 µM
# [3] = second compound 0.1 µM, first compound 0.0316 µM
# [4] = second compound 0.1 µM, first compound 0.1 µM
# [5] = second compound 0.316 µM, first compound 0.0316 µM
# [6] = second compound 0.316 µM, first compound 0.1 µM
# [7] = second compound 1 µM, first compound 0.0316 µM
# [8] = second compound 1 µM, first compound 0.1 µM
# [9] = second compound 3.16 µM, first compound 0.0316 µM
# [10] = second compound 3.16 µM, first compound 0.1 µM
# [11] = second compound 10 µM, first compound 0.0316 µM
# [12] = second compound 10 µM, first compound 0.1 µM
# [13] = second compound 0.0316 µM, first compound 0.316 µM
# [14] = second compound 0.0316 µM, first compound 1 µM
# [15] = second compound 0.0316 µM, first compound 3.16 µM
# [16] = second compound 0.0316 µM, first compound 10 µM
# [17] = second compound 0.1 µM, first compound 0.316 µM
# [18] = second compound 0.1 µM, first compound 1 µM
# [19] = second compound 0.1 µM, first compound 3.16 µM
# [20] = second compound 0.1 µM, first compound 10 µM
# [21] = second compound 0.316 µM, first compound 0.316 µM
# [22] = second compound 0.316 µM, first compound 1 µM
# [23] = second compound 0.316 µM, first compound 3.16 µM
# [24] = second compound 0.316 µM, first compound 10 µM
# [25] = second compound 1 µM, first compound 0.316 µM
# [26] = second compound 1 µM, first compound 1 µM
# [27] = second compound 1 µM, first compound 3.16 µM
# [28] = second compound 1 µM, first compound 10 µM
# [29] = second compound 3.16 µM, first compound 0.316 µM
# [30] = second compound 3.16 µM, first compound 1 µM
# [31] = second compound 3.16 µM, first compound 3.16 µM
# [32] = second compound 3.16 µM, first compound 10 µM
# [33] = second compound 10 µM, first compound 0.316 µM
# [34] = second compound 10 µM, first compound 1 µM
# [35] = second compound 10 µM, first compound 3.16 µM
# [36] = second compound 10 µM, first compound 10 µM
# 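Also: spheroids exposed to compounds for seven days before readout.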
# 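For viability, T/C in this document: 100% = DMSO vehicle control viability.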
compound,measurement,setting,value
CC[C@@]1(O)C(=O)OCc2c1cc1n(c2=O)Cc2cc3c(CN(C)C)c(O)ccc3nc2-1 + Nc1ccc(C#CCN(C(=O)Cc2ncc(C(F)(F)F)cc2C(F)(F)F)c2ccc(F)cc2)nn1,IC50,second compound 0.0316 µM,> 100 nM
same,IC50,second compound 0.1 µM,> 100 nM
same,IC50,second compound 0.316 µM,> 100 nM
same,IC50,second compound 1 µM,> 100 nM
same,IC50,second compound 3.16 µM,> 100 nM
same,IC50,second compound 10 µM,> 100 nM
same,"viability, T/C","second compound 0.0316 µM, first compound 0.000316 µM",104%
same,"viability, T/C","second compound 0.0316 µM, first compound 0.001 µM",99.7%
same,"viability, T/C","second compound 0.0316 µM, first compound 0.00316 µM",99.6%
same,"viability, T/C","second compound 0.0316 µM, first compound 0.01 µM",84.8%
same,"viability, T/C",[1],84.5%
same,"viability, T/C",[2],66.1%
same,"viability, T/C","second compound 0.1 µM, first compound 0.000316 µM",107%
same,"viability, T/C","second compound 0.1 µM, first compound 0.001 µM",99.6%
same,"viability, T/C","second compound 0.1 µM, first compound 0.00316 µM",93.3%
same,"viability, T/C","second compound 0.1 µM, first compound 0.01 µM",101%
same,"viability, T/C",[3],85.7%
same,"viability, T/C",[4],68.1%
same,"viability, T/C","second compound 0.316 µM, first compound 0.000316 µM",97.3%
same,"viability, T/C","second compound 0.316 µM, first compound 0.001 µM",101%
same,"viability, T/C","second compound 0.316 µM, first compound 0.00316 µM",89.6%
same,"viability, T/C","second compound 0.316 µM, first compound 0.01 µM",81.1%
same,"viability, T/C",[5],87.3%
same,"viability, T/C",[6],80.9%
same,"viability, T/C","second compound 1 µM, first compound 0.000316 µM",90.2%
same,"viability, T/C","second compound 1 µM, first compound 0.001 µM",104%
same,"viability, T/C","second compound 1 µM, first compound 0.00316 µM",101%
same,"viability, T/C","second compound 1 µM, first compound 0.01 µM",100%
same,"viability, T/C",[7],81.5%
same,"viability, T/C",[8],69.7%
same,"viability, T/C","second compound 3.16 µM, first compound 0.000316 µM",102%
same,"viability, T/C","second compound 3.16 µM, first compound 0.001 µM",99%
same,"viability, T/C","second compound 3.16 µM, first compound 0.00316 µM",126%
same,"viability, T/C","second compound 3.16 µM, first compound 0.01 µM",102%
same,"viability, T/C",[9],75.1%
same,"viability, T/C",[10],76.6%
same,"viability, T/C","second compound 10 µM, first compound 0.000316 µM",122%
same,"viability, T/C","second compound 10 µM, first compound 0.001 µM",119%
same,"viability, T/C","second compound 10 µM, first compound 0.00316 µM",116%
same,"viability, T/C","second compound 10 µM, first compound 0.01 µM",95%
same,"viability, T/C",[11],91.5%
same,"viability, T/C",[12],91%
CC1COCCN1c1cc(-c2ccnn2C)c2ccnc(-c3ccn[nH]3)c2n1 (stereo unspecified) + Nc1ccc(C#CCN(C(=O)Cc2ncc(C(F)(F)F)cc2C(F)(F)F)c2ccc(F)cc2)nn1,IC50,second compound 0.0316 µM,292 nM
same,IC50,second compound 0.1 µM,408 nM
same,IC50,second compound 0.316 µM,479 nM
same,IC50,second compound 1 µM,422 nM
same,IC50,second compound 3.16 µM,572 nM
same,IC50,second compound 10 µM,482 nM
same,"viability, T/C",[1],76.9%
same,"viability, T/C",[2],65.1%
same,"viability, T/C",[13],48%
same,"viability, T/C",[14],35.7%
same,"viability, T/C",[15],36.3%
same,"viability, T/C",[16],25.3%
same,"viability, T/C",[3],73.1%
same,"viability, T/C",[4],59.3%
same,"viability, T/C",[17],59.1%
same,"viability, T/C",[18],33.6%
same,"viability, T/C",[19],32.6%
same,"viability, T/C",[20],24.9%
same,"viability, T/C",[5],75.4%
same,"viability, T/C",[6],58.4%
same,"viability, T/C",[21],59%
same,"viability, T/C",[22],41.4%
same,"viability, T/C",[23],34.9%
same,"viability, T/C",[24],26%
same,"viability, T/C",[7],68.2%
same,"viability, T/C",[8],60.5%
same,"viability, T/C",[25],51.7%
same,"viability, T/C",[26],41.7%
same,"viability, T/C",[27],44.8%
same,"viability, T/C",[28],34.8%
same,"viability, T/C",[9],70.9%
same,"viability, T/C",[10],61.3%
same,"viability, T/C",[29],56.1%
same,"viability, T/C",[30],44%
same,"viability, T/C",[31],39.1%
same,"viability, T/C",[32],28.9%
same,"viability, T/C",[11],84.5%
same,"viability, T/C",[12],70%
same,"viability, T/C",[33],59.5%
same,"viability, T/C",[34],35.4%
same,"viability, T/C",[35],40.1%
same,"viability, T/C",[36],34.4%
CCCS(=O)(=O)Nc1ccc(F)c(C(=O)c2c[nH]c3ncc(-c4ccc(Cl)cc4)cc23)c1F + Nc1ccc(C#CCN(C(=O)Cc2ncc(C(F)(F)F)cc2C(F)(F)F)c2ccc(F)cc2)nn1,IC50,second compound 0.0316 µM,9410 nM
same,IC50,second compound 0.1 µM,8350 nM
same,IC50,second compound 0.316 µM,> 10000 nM
same,IC50,second compound 1 µM,> 10000 nM
same,IC50,second compound 3.16 µM,> 10000 nM
same,IC50,second compound 10 µM,> 10000 nM
same,"viability, T/C",[1],91.8%
same,"viability, T/C",[2],104%
same,"viability, T/C",[13],91.6%
same,"viability, T/C",[14],102%
same,"viability, T/C",[15],106%
same,"viability, T/C",[16],47.2%
same,"viability, T/C",[3],98.2%
same,"viability, T/C",[4],86%
same,"viability, T/C",[17],109%
same,"viability, T/C",[18],112%
same,"viability, T/C",[19],85%
same,"viability, T/C",[20],43.5%
same,"viability, T/C",[5],104%
same,"viability, T/C",[6],92.8%
same,"viability, T/C",[21],103%
same,"viability, T/C",[22],111%
same,"viability, T/C",[23],91.7%
same,"viability, T/C",[24],54.5%
same,"viability, T/C",[7],111%
same,"viability, T/C",[8],103%
same,"viability, T/C",[25],89.2%
same,"viability, T/C",[26],92.4%
same,"viability, T/C",[27],88.7%
same,"viability, T/C",[28],50.7%
same,"viability, T/C",[9],111%
same,"viability, T/C",[10],102%
same,"viability, T/C",[29],110%
same,"viability, T/C",[30],98.3%
same,"viability, T/C",[31],99.6%
same,"viability, T/C",[32],59.7%
same,"viability, T/C",[11],106%
same,"viability, T/C",[12],107%
same,"viability, T/C",[33],118%
same,"viability, T/C",[34],125%
same,"viability, T/C",[35],95.2%
same,"viability, T/C",[36],57.6%
